Molecular target: T1, Beta-glucuronidase (Homo sapiens, UniProt P08236)
T1 sequence (P08236 whole entry): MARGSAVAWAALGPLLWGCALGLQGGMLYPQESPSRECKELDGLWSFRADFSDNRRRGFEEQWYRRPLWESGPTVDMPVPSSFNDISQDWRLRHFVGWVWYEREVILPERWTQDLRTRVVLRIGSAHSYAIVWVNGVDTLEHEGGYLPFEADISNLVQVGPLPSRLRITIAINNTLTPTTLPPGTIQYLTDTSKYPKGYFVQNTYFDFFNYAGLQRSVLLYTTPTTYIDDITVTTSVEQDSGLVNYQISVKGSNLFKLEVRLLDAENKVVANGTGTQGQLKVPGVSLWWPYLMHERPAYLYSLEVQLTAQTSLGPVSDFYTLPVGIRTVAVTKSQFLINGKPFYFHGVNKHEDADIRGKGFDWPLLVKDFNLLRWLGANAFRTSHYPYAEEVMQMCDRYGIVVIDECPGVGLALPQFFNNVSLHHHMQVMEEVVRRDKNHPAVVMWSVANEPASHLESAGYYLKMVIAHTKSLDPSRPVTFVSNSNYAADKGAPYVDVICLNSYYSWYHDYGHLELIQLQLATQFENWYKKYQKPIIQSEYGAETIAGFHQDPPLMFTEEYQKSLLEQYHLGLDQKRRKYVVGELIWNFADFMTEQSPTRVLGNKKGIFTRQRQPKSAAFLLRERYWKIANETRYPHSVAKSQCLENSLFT
Test: β-Glucuronidase Assay
Experimental: β-glucuronidase activity was determined in accordance to method used by Taha et al. [Taha et al., Bioorg. […] 250 μL was the volume of total reaction. Reaction mixture containing 5 μL of test compound solution, 185 μL of 0.1 M acetate buffer and 10 μL of enzyme solution were incubated for 30 min at 37 °C. […] To avoid precipitation, compound concentration was decreased and the volume of reaction was increased (200 μL). Precipitation probability was less thus addition of detergents was not needed.

| SMILES | IC50 |
| --- | --- |
| O=C(N/N=C/c1cccc(O)c1O)c1cc2cc(Cl)ccc2[nH]1 [(E)-5-chloro-N'-(2,3-dihydroxybenzylidene)-1H-indole-2-carbohydrazide (19)] | 13.4 µM |
| O=C(N/N=C/c1cc(O)ccc1O)c1cc2cc(Cl)ccc2[nH]1 [(E)-5-chloro-N'-(2,5-dihydroxybenzylidene)-1H-indole-2-carbohydrazide (23)] | 7.5 µM |
| COc1ccc(/C=N/NC(=O)c2cc3cc(Cl)ccc3[nH]2)c(O)c1 [(E)-5-chloro-N'-(2-hydroxy-4-methoxybenzylidene)-1H-indole-2-carbohydrazide (16)] | 21.5 µM |
| COc1ccc(O)c(/C=N/NC(=O)c2cc3cc(Cl)ccc3[nH]2)c1 [(E)-5-chloro-N'-(2-hydroxy-5-methoxybenzylidene)-1H-indole-2-carbohydrazide (6)] | 24.3 µM |
| O=C(N/N=C/c1ccccc1O)c1cc2cc(Cl)ccc2[nH]1 [(E)-5-chloro-N'-(2-hydroxybenzylidene)-1H-indole-2-carbohydrazide (26)] | 25.2 µM |
| O=C(N/N=C/c1ccc(O)c(O)c1)c1cc2cc(Cl)ccc2[nH]1 [(E)-5-chloro-N'-(3,4-dihydroxybenzylidene)-1H-indole-2-carbohydrazide (24)] | 14.6 µM |
| COc1ccc(/C=N/NC(=O)c2cc3cc(Cl)ccc3[nH]2)cc1O [(E)-5-chloro-N'-(3-hydroxy-4-methoxybenzylidene)-1H-indole-2-carbohydrazide (5)] | 22.5 µM |
| COc1ccc(/C=N/NC(=O)c2cc3cc(Cl)ccc3[nH]2)cc1 [(E)-5-chloro-N'-(4-methoxybenzylidene)-1H-indole-2-carbohydrazide (13)] | 53.6 µM |
| Cc1ccc(/C=N/NC(=O)c2cc3cc(Cl)ccc3[nH]2)cc1 [(E)-5-chloro-N'-(4-methylbenzylidene)-1H-indole-2-carbohydrazide (1)] | 43.5 µM |
| O=C(N/N=C/c1ccccn1)c1cc2cc(Cl)ccc2[nH]1 [(E)-5-chloro-N'-(pyridin-2-ylmethylene)-1H-indole-2-carbohydrazide (17)] | 22.8 µM |
| O=C(N/N=C/c1cccnc1)c1cc2cc(Cl)ccc2[nH]1 [(E)-5-chloro-N'-(pyridin-3-ylmethylene)-1H-indole-2-carbohydrazide (18)] | 44.5 µM |
| O=C(N/N=C/c1ccncc1)c1cc2cc(Cl)ccc2[nH]1 [(E)-5-chloro-N'-(pyridin-4-ylmethylene)-1H-indole-2-carbohydrazide (27)] | 42.4 µM |
| O=C(N/N=C/c1ccc(F)c(Br)c1)c1cc2cc(Cl)ccc2[nH]1 [(E)-N'-(3-bromo-4-fluorobenzylidene)-5-chloro-1H-indole-2-carbohydrazide (33)] | 14.4 µM |
| O=C(N/N=C/c1ccc(Cl)cc1)c1cc2cc(Cl)ccc2[nH]1 [(E)-N'-(4-chlorobenzylidene)-5-chloro-1H-indole-2-carbohydrazide (34)] | 37.2 µM |
| COC(=O)c1ccc(/C=N/NC(=O)c2cc3cc(Cl)ccc3[nH]2)cc1 [Methyl (E)-4-((2-(5-chloro-1H-indole-2-carbonyl)hydrazono)methyl)benzoate (15)] | 22.6 µM |

Reference: BindingDB's records for doi:10.7270/Q28051GP (Universiti Teknologi Mara, 2017)
